Source: US20070270455A1, “INHIBITION OF NF-kB” (priority 2005, published 2007)

Experiments:
[1] = test system: HT1080 sip53 or HT1080 siGFP cells; assay: Cell cycle analysis; assay type: cell-based, human
[2] = test system: normal kidney epithelial cells and human diploid fibroblasts WI38; assay: Cell survival assay in normal cells; assay type: cell-based
Procedure: The same experiment as described in FIG. 4A was performed with NKE, RCC45, RCC54 and ACHN cells.
5×10^3 of cells were plated in 6 well plates and treated with different concentrations of drugs for 24 hours. Then fresh drug-free medium was added. Number of colonies was estimated after 5-6 days of incubation. Cell survival was estimated as a percentage of intensity of methylene blue staining of treated cells, comparing with untreated control (methylene blue from stained colonies was extracted by 0.1% of SDS and quantitated spectrophotometrically).

HT1080ConALuC tumors = assay: p53-dependent luciferase reporter in xenograft tumors; assay type: in vivo; details: intraperitoneal; 24 hours; nude mice
Procedure: HT1080ConALuC cells were inoculated into two flanks of nude mice. When tumors reach 5 mm in diameter, mice were injected intraperitoneally with indicated concentrations of the drugs (mg/kg, 3 mice per group). After 24 hours mice were sacrificed, tumors were isolated, lysed in Reporter Lysis Reagent (Promega) and luciferase activity was measured in […] of tumor proteins. Bars represent fold of induction of luciferase activity in tumors, treated with drugs over luciferase activity in tumors treated with vehicle. FIG. 5B: HT1080sip53 or HT1080siGFP cells were inoculated in the left and right flank of nude mice respectively.
NIH Swiss athymic nude, male mice, 5-6 weeks old were purchased from Harlan. 5×10^6 of tumor cells were inoculated into the flank of mice in 100 μL of PBS. […] As vehicle, 50% DMSO solution in PBS was used. Tumor size was measured in three dimensions every other day.
The in vivo anti-tumor effects of aminoacridines were tested in a xenograft tumor model using HT1080 cells differing in their p53 status and carrying p53 luciferase reporters grown subcutaneously in nude mice.

RCC54 = assay: Global gene expression profile by microarray hybridization, RCC54; assay type: cell-based; details: 36847 genes; at least in one dose (2 μM, 10 μM) in both cell lines RCC45 and RCC54; 16 hours
Procedure: RNA was isolated after 16 hours of treatment that was enough to induce p53 but before appearance of signs of cell death. Among the 36847 genes represented on the array, only 0.6% changed their mRNA abundance by at least a factor of 2 at least in one dose in both cell lines.

RCC cell lines = assay: Restoration of p53-mediated transactivation in RCC cell lines; assay type: cell-based; details: data not shown

Nc1c2ccccc2nc2ccccc12 [9AA, 9-aminoacridine]
effect on cell cycle ([1]; 3 μM): p53-dependent growth arrest
effect on cell cycle ([1]; 20 μM): apoptosis
sensitivity of normal cells compared with RCC and other tumor cells [2]: more resistant to 9AA
activation of p53 in tumors (HT1080ConALuC tumors): capable of activating p53 in tumors
genes that changed mRNA abundance by at least a factor of 2 (RCC54): 0.6%
RCC cell lines with restored p53-mediated transactivation (RCC cell lines): 9 out of 10
